Data on one compound can be found in patent publication US20210137948A1, “TREATMENT OF INFECTIONS CAUSED BY NEISSERIA GONOCOCCUS USING A HALOGENATED SALICYLANILIDE” (priority 2018, published 2021).

The conditions of series [1]: cited from earlier work.
The subject of the next series is Klebsiella pneumoniae. In words: Broth microdilution MIC testing. The class given is cell-based. The note with it: Klebsiella pneumoniae MMX 214/ATCC 13883, susceptible. How it is done: (§1) Broth microdilution assay: Mueller Hinton II broth (MHB II, BBL, BD, catalog no. 212322; lot no. 5257869) was used for testing most aerobes.
(§2) MIC values were determined using a broth microdilution procedure described by CLSI, see reference (1). Automated liquid handlers (Multidrop 384, Labsystems, Helsinki, Finland; Biomek 2000 and Biomek FX, Beckman Coulter, Fullerton Calif.) were used to conduct serial dilutions and liquid transfers.
(§3) The wells in Columns 2 through 12 of two standard 96-well microdilution plates (Costar 3795, Corning Inc., Corning, N.Y.) were filled with 150 μL of diluent specific to the compound tested. Three hundred microliters of each comparator and investigational drug solution (40× or 100×) was added to one well in Column 1 of the plates. The Biomek 2000 was used to complete the serial transfers through Column 11. The wells of Column 12 contained no drug and were the organism growth control wells. These panels were the “mother plates.”
(§4) Because drugs were prepared at either 40× or 100×, the “daughter plates” were loaded with 185-188 μL of the appropriate test media for the tested organism, using the Multidrop 384 or by hand. The daughter plates were prepared on the Biomek FX instrument, which transferred 2-5 μL of drug solution from each well of a mother plate to the corresponding well of each daughter plate in a single step. The wells of the daughter plates ultimately contained 185-188 μL of broth appropriate to the organism, 2-5 μL of drug solution, and 10 μL of bacterial inoculum prepared in broth.
(§5) Standardized inoculum of each organism was prepared per CLSI methods, see reference (1). The inoculum for each organism was dispensed into sterile reservoirs divided by length (Beckman Coulter), and the Biomek 2000 was used to inoculate the plates. Daughter plates were placed on the Biomek 2000 work surface in reverse orientation so that inoculation took place from low to high drug concentration. The Biomek 2000 delivered 10 μL of standardized inoculum into each well. This yielded a final cell density in the daughter plates of approximately 5×10^5 CFU/mL.
(§6) Plates were stacked 3 high, covered with a lid on the top plate, placed in plastic bags, and incubated at 35° C. for approximately 18 to 20 hr. Following incubation, the microplates were removed from the incubator and viewed from the bottom using a plate viewer. […] The MIC was read and recorded as the lowest concentration of drug that inhibited visible growth of the organism.
For orientation: Broth dilution looks for growth in wells or tubes with falling amounts of substance.

For series [2], the system named is Stenotrophomonas maltophila. In words: Broth microdilution MIC testing. The class given is cell-based. The note with it: Stenotrophomonas maltophila MMX 4746, susceptible. How it is done:
as §1, §2, §3, §4, §5, §6

The subject of a further series is Escherichia coli. In words: Broth microdilution MIC testing. In kind it is cell-based. The note with it: for MIC: Escherichia coli, read-out: Minimal Inhibitory Concentration. How it is done:
as §1, §2, §3, §4, §5, §6

Another series concerns Enterobacter cloacae. In words: Broth microdilution MIC testing. The note with it: Enterobacter cloacae MMX 6089, susceptible. In kind it is cell-based. As for the experimental part: as §1, §2, §3, §4, §5, §6
The subject of the next series is Acinetobacter baumannii. The experiment in a line: Broth microdilution MIC testing. In kind it is cell-based. The following applies: Acinetobacter baumannii MMX 1630/ATCC 19606, susceptible. How it is done: as §1, §2, §3, §4, §5, §6
In a further series the test system is Pseudomonas aeruginosa. In words: Broth microdilution MIC testing. The class given is cell-based. The note with it: Pseudomonas aeruginosa MMX 103/ATCC 27853, susceptible, QC. As for the experimental part: as §1, §2, §3, §4, §5, §6
The test system of the next series is cats. The following applies: p.o.; cited from earlier work.
For series [3], the system named is N. gonorrhoeae ATCC49226/MMX 683. In words: Agar dilution MIC assay (Example 1). In kind it is cell-based, Neisseria gonorrhoeae. As for the experimental part:
Neisseria gonococcus (N. gonorrhoeae) were assayed using a reference agar dilution method, see reference (2). Drug dilutions and drug-supplemented agar plates were prepared manually. Neisseria gonococcus was grown on Chocolate agar in a CO2 incubator overnight at 35° C. prior to assay. […] The MIC was read per CLSI guidelines, see reference (3).
In general terms: Agar dilution tests growth on a series of plates holding different concentrations.

Converted amounts (≈) assume the structure as drawn. Read-outs that look alike come from different tables or passages of the source.

By LD50 is commonly meant the dose expected to kill half of the subjects tested.

Regarding `O=C(Nc1ccc([N+](=O)[O-])cc1Cl)c1cc(Cl)ccc1O` [Niclosamide, 2′,5-dichloro-4′-nitrosalicylanilide], the solubility in water entry in [1] is listed as “poorly soluble”. The MIC in the series on Klebsiella pneumoniae (ATCC13883, read-out: Minimal Inhibitory Concentration) is greater than 8 µg/mL; in series [2] (Stenotrophomonas sp. LMG 10879, read-out: Minimal Inhibitory Concentration) it was greater than 8 µg/mL; in the series on Escherichia coli (ATCC25922) it was greater than 8 µg/mL; in the series on Escherichia coli, greater than 8 µg/mL; with Enterobacter cloacae (read-out: Minimal Inhibitory Concentration) it was greater than 8 µg/mL; in the series on Acinetobacter baumannii (ATCC19606, read-out: Minimal Inhibitory Concentration) it was greater than 8 µg/mL. In addition, the MIC was greater than 8 µg/mL with Pseudomonas aeruginosa (ATCC27853, read-out: Minimal Inhibitory Concentration) and 0.12 µg/mL (≈ 0.367 µM) in series [3] (ATCC49226, Neisseria gonorrhoeae MMX 683/ATCC 49226, QC, read-out: Minimal Inhibitory Concentration). Moreover, the “Minimal Inhibitory Concentration” value in the series on Klebsiella pneumoniae is greater than 8 µg/mL; in series [2] it was greater than 8 µg/mL; with Escherichia coli (Escherichia coli MMX 102/ATCC 25922, QC strain), greater than 8 µg/mL; in the series on Escherichia coli (Escherichia coli MMX 120, acrAB efflux pump knockout), greater than 8 µg/mL; in the series on Enterobacter cloacae, greater than 8 µg/mL; with Acinetobacter baumannii, greater than 8 µg/mL. In addition, the “Minimal Inhibitory Concentration” value is greater than 8 µg/mL in the series with Pseudomonas aeruginosa and 0.12 µg/mL in series [3] (Neisseria gonorrhoeae MMX 683/ATCC 49226, QC). In the series on cats, the LD50 was greater than 1000 mg/kg. Moreover, in series [3] (against N. gonococcus (N. gonorrhoeae), Example 1 conclusion), the “in vitro activity (in words)” value is recorded as “good in vitro activity”.
